Like-named read-outs stand apart in the source and are kept apart here.
Key:
Test in all cases: Kinase binding assay (kinase-tagged T7 phage, affinity beads, qPCR), Kd
FGFR1 = biological target: T1, FGFR1 (Homo sapiens, UniProt P11362); settings: read-out: FGFR1 (Kd nM)
T1 construct: made in house; host or cells: E. coli (BL21-derived), T7 phage
Experimental: (§1) Kinase-tagged T7 phage strains were prepared in an E. coli host derived from the BL21 strain. E. coli were grown to log-phase and infected with T7 phage and incubated with shaking at 32° C. until lysis. The lysates were centrifuged and filtered to remove cell debris. Streptavidin-coated magnetic beads were treated with biotinylated small molecule ligands for 30 minutes at room temperature to generate affinity resins for kinase assays. The liganded beads were blocked with excess biotin and washed with blocking buffer SeaBlock (Pierce), 1% BSA, 0.05% Tween 20, 1 mM DTT to remove unbound ligand and to reduce non-specific binding.
(§2) Test compounds were prepared as 111× stocks in 100% DMSO. Kds were determined using an 11-point 3-fold compound dilution series with three DMSO control points. […] The compounds were then diluted directly into the assays such that the final concentration of DMSO was 0.9%. All reactions performed in polypropylene 384-well plate. Each was a final volume of 0.02 ml. […] The kinase concentration in the eluates was measured by qPCR.
(§3) Binding constants were calculated with a standard dose-response curve using the Hill equation: […]
(§4) The Hill Slope was set to −1. Curves were fitted using a non-linear least square fit with the Levenberg-Marquardt algorithm.

FGFR2 = biological target: T2, FGFR2 (Homo sapiens, UniProt P21802); settings: read-out: FGFR2 (Kd nM)
T2 construct: made in house; host or cells: E. coli (BL21-derived), T7 phage
T2 sequence (P21802 22-821): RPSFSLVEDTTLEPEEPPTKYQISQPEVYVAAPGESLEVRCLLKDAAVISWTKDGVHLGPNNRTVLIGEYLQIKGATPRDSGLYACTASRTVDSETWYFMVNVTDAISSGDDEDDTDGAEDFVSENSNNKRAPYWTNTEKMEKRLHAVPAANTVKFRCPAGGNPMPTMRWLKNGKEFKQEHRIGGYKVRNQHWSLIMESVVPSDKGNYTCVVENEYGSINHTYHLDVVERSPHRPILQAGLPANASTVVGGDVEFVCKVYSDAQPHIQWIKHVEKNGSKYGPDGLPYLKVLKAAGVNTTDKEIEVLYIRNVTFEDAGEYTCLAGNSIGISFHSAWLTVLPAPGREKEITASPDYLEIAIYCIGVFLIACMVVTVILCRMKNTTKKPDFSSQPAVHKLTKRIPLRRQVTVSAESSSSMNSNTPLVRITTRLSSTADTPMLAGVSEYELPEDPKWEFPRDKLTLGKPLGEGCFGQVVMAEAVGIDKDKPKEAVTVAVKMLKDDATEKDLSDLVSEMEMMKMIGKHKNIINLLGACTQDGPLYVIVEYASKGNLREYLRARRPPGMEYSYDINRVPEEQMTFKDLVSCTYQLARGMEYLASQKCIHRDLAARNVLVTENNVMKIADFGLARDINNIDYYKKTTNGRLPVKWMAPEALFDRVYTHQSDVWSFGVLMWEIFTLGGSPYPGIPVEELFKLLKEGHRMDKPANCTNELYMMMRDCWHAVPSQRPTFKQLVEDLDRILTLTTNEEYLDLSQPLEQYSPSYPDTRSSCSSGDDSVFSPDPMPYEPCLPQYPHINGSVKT
Experimental: as §1, §2, §3, §4

FGFR3 = biological target: T3, FGFR3 (Homo sapiens, UniProt P22607); settings: read-out: FGFR3 (Kd nM)
T3 construct: made in house; host or cells: E. coli (BL21-derived), T7 phage
T3 sequence (P22607 23-806): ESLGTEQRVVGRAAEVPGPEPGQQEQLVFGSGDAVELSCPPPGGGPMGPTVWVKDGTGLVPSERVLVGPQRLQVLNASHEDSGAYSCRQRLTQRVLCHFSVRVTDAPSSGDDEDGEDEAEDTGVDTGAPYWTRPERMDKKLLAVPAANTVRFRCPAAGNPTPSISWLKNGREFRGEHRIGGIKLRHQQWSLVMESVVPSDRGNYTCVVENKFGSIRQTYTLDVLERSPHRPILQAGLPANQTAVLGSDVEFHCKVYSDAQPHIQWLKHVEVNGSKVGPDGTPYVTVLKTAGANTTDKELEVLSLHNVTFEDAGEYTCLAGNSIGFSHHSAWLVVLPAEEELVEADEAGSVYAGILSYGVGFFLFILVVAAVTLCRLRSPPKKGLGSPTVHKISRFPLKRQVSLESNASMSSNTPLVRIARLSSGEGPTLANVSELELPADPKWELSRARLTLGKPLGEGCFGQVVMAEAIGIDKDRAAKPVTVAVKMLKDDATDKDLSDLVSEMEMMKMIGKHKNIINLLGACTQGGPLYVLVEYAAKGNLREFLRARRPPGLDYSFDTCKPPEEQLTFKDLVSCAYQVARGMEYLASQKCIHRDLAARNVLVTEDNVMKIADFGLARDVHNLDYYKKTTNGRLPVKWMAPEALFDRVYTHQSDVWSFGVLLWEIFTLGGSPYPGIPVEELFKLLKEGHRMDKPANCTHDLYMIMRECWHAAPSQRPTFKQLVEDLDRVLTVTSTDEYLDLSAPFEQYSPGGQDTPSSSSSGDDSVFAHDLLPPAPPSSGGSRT
Experimental: as §1, §2, §3, §4

FGFR3 (V555M) = biological target: T4, FGFR3 (V555M) (Homo sapiens, UniProt P22607, V555M); settings: V555M mutant; read-out: FGFR3 (V555M) (Kd nM)
T4 construct: made in house; host or cells: E. coli (BL21-derived), T7 phage
T4 sequence (P22607 23-806 V555M): as the sequence (P22607 23-806) above, with V533M counted along it
Experimental: as §1, §2, §3, §4

FGFR4 = biological target: T5, FGFR4 (Homo sapiens, UniProt P22455); settings: read-out: FGFR4 (Kd nM)
T5 construct: made in house; host or cells: E. coli (BL21-derived), T7 phage
T5 sequence (P22455 22-802): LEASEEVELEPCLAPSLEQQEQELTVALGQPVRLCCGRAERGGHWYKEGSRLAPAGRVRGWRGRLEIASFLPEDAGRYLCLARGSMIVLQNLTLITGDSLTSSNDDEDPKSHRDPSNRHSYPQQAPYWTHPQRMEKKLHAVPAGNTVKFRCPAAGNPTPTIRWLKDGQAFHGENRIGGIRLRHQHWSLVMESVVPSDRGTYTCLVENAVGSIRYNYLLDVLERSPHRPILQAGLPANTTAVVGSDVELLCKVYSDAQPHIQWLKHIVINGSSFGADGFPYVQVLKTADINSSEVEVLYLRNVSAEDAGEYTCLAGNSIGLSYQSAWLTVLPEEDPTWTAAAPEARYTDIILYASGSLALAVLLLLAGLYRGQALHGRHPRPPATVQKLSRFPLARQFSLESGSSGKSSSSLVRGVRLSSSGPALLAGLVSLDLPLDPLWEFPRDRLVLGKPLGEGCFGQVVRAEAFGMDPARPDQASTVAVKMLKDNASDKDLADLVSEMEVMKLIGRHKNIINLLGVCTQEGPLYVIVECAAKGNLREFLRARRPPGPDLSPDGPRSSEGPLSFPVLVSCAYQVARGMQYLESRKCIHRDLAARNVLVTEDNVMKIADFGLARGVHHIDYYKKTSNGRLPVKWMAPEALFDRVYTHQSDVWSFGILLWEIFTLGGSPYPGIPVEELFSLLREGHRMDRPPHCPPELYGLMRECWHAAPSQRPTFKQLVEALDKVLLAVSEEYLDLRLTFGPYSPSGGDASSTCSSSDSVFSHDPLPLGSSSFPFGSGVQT
Experimental: as §1, §2, §3, §4

[1] = kinase binding assay, 11-point 3-fold dilution series

T1 sequence (P11362 22-822): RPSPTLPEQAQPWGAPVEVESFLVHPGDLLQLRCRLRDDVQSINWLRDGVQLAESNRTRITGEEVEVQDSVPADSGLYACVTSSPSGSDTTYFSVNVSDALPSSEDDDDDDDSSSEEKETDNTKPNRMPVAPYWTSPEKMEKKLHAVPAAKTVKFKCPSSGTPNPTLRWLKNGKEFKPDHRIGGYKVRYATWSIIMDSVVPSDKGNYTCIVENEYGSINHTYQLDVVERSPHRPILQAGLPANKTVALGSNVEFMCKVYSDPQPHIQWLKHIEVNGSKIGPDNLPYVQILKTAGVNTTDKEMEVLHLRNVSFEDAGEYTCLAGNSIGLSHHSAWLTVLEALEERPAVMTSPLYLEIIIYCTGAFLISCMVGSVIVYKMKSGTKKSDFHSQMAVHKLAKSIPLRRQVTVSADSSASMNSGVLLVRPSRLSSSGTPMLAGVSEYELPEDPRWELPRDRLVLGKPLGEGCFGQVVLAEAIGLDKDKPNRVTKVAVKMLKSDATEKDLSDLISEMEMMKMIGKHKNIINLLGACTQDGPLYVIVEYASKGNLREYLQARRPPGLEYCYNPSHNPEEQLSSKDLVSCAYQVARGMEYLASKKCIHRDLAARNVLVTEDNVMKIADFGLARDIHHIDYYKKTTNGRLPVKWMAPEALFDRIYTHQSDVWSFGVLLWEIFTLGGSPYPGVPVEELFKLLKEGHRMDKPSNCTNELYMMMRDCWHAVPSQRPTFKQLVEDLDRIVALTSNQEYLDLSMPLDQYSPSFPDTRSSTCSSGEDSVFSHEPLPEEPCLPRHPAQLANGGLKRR

## 3-[6-[3-(cyclobutoxy)- 3-methyl-azetidin-1- yl]-3-pyridy1]-5-[(1R)- 1-(3,5-dichloro-2- methyl-4- pyridyl)ethoxy]-1H- indazole [Example 75]
FGFR1
  Kd: 300 to 1000 nM
FGFR2
  Kd: 50 to 300 nM
FGFR3
  Kd: 1 to 50 nM
FGFR3 (V555M)
  Kd: 1 to 50 nM
FGFR4
  Kd: 50 to 300 nM

## C[C@@H](Oc1ccc2[nH]nc(-c3cnc(N4CC(C)(NC5CCC5)C4)c(C#N)c3)c2c1)c1c(Cl)cncc1Cl [Example 2, (R)-2-(3-(cyclobutylamino)-3-methylazetidin-1-yl)-5-(5-(1-(3,5-dichloropyridin-4-yl)ethoxy)-1H-indazol-3-yl)nicotinonitrile]
FGFR1
  Kd: 50 to 300 nM
FGFR2
  Kd: 50 to 300 nM
FGFR3
  Kd: 1 to 50 nM
FGFR3 (V555M)
  Kd: 1 to 50 nM
FGFR4
  Kd: 1 to 50 nM

## COc1cc2[nH]nc(-c3cnc(N4CC5(CC5)C4)c(C#N)c3)c2cc1O[C@H](C)c1c(Cl)cncc1Cl [Example 3, (R)-5-(5-(1-(3,5-dichloropyridin-4-yl)ethoxy)-6-methoxy-1H-indazol-3-yl)-2-(5-azaspiro[2.3]hexan-5-yl)nicotinonitrile]
FGFR1
  Kd: 50 to 300 nM
FGFR2
  Kd: 300 to 1000 nM
FGFR3
  Kd: 1 to 50 nM
FGFR3 (V555M)
  Kd: 1 to 50 nM
FGFR4
  Kd: 1 to 50 nM

## C[C@@H](Oc1cc2c(-c3cnc(N4CC5(CC5)C4)c(C#N)c3)n[nH]c2cc1F)c1c(Cl)cncc1Cl [Example 5, (R)-5-(5-(1-(3,5-Dichloropyridin-4-yl)ethoxy)-6-fluoro-1H-indazol-3-yl)-2-(5-azaspiro[2.3]hexan-5-yl)nicotinonitrile]
FGFR1
  Kd: > 1000 nM
FGFR2
  Kd: > 1000 nM
FGFR3
  Kd: 50 to 300 nM
FGFR3 (V555M)
  Kd: 50 to 300 nM
FGFR4
  Kd: 1 to 50 nM

## CCNC1(C)CN(c2ncc(-c3n[nH]c4ccc(O[C@H](C)c5c(Cl)cnc(C)c5Cl)cc34)cc2C#N)C1 [Example 40, 5-[5-[(1R)-1-(3,5-dichloro-2-methyl-4-pyridyl)ethoxy]-1H-indazol-3-yl]-2-[3-(ethylamino)-3-methyl-azetidin-1-yl]pyridine-3-carbonitrile]
FGFR1
  Kd: 50 to 300 nM
FGFR2
  Kd: 50 to 300 nM
FGFR3
  Kd: 1 to 50 nM
FGFR3 (V555M)
  Kd: 1 to 50 nM
FGFR4
  Kd: 1 to 50 nM

## COc1cc2[nH]nc(-c3cnc(N4CCC4)c(F)c3)c2cc1O[C@H](C)c1c(Cl)cnc(C)c1Cl [Example 58, 3-[6-(azetidin-1-yl)-5-fluoro-3-pyridyl]-5-[(1R)-1-(3,5-dichloro-2-methyl-4-pyridyl)ethoxy]-6-methoxy-1H-indazole]
FGFR1
  Kd: 50 to 300 nM
FGFR2
  Kd: 1 to 50 nM
FGFR3
  Kd: 1 to 50 nM
FGFR3 (V555M)
  Kd: 1 to 50 nM
FGFR4
  Kd: 1 to 50 nM

## CC[C@]1(N)CCN(c2ccc(-c3n[nH]c4ccc(O[C@H](C)c5c(Cl)cncc5Cl)cc34)nn2)C1 [Example 403, (S)-1-(6-(5-((R)-1-(3,5-dichloropyridin-4-yl)ethoxy)-1H-indazol-3-yl)pyridazin-3-yl)-3-ethylpyrrolidin-3-amine]
FGFR1; [1]
  Kd: 1 to 50 nM
FGFR3; [1]
  Kd: 1 to 50 nM

## C[C@@H](Oc1ccc2[nH]nc(-c3cnc(N4CC[C@](N)(c5ccnn5C)C4)c(F)c3)c2c1)c1c(Cl)cncc1Cl [Example 404, (R)-1-(5-(5-((R)-1-(3,5-dichloropyridin-4-yl)ethoxy)-1H-indazol-3-yl)-3-fluoropyridin-2-yl)-3-(1-methyl-1H-pyrazol-5-yl)pyrrolidin-3-amine]
FGFR1; [1]
  Kd: 1 to 50 nM
FGFR3; [1]
  Kd: 1 to 50 nM

## C[C@@H](Oc1ccc2[nH]nc(-c3cnc(N4CC[C@@](N)(c5ccnn5C)C4)c(F)c3)c2c1)c1c(Cl)cncc1Cl [Example 405, (S)-1-(5-(5-((R)-1-(3,5-dichloropyridin-4-yl)ethoxy)-1H-indazol-3-yl)-3-fluoropyridin-2-yl)-3-(1-methyl-1H-pyrazol-5-yl)pyrrolidin-3-amine]
FGFR1; [1]
  Kd: 1 to 50 nM
FGFR3; [1]
  Kd: 1 to 50 nM

## C[C@@H](Oc1ccc2[nH]nc(-c3ccc(N4CC[C@@](C)(N)C4)nn3)c2c1)c1c(Cl)cncc1Cl [Example 406, (R)-1-(6-(5-((R)-1-(3,5-dichloropyridin-4-yl)ethoxy)-1H-indazol-3-yl)pyridazin-3-yl)-3-methylpyrrolidin-3-amine]
FGFR1; [1]
  Kd: 1 to 50 nM
FGFR3; [1]
  Kd: 1 to 50 nM

## C[C@@H](Oc1ccc2[nH]nc(-c3ccc(N4CC[C@](C)(N)C4)nn3)c2c1)c1c(Cl)cncc1Cl [Example 407, (S)-1-(6-(5-((R)-1-(3,5-dichloropyridin-4-yl)ethoxy)-1H-indazol-3-yl)pyridazin-3-yl)-3-methylpyrrolidin-3-amine]
FGFR1; [1]
  Kd: 1 to 50 nM
FGFR3; [1]
  Kd: 1 to 50 nM

## C[C@@H](Oc1ccc2[nH]nc(-c3cnc(N4CC(N)(CS(C)(=O)=O)C4)c(F)c3)c2c1)c1c(Cl)cncc1Cl [Example 412, 1-[5-[5-[(1R)-1-(3,5-dichloro-4-pyridyl)ethoxy]-1H-indazol-3-yl]-3-fluoro-2-pyridyl]-3-(methylsulfonyl-methyl)azetidin-3-amine]
FGFR1; [1]
  Kd: 1 to 50 nM
FGFR3; [1]
  Kd: 1 to 50 nM

## C[C@@H](Oc1ccc2[nH]nc(-c3ccc(N4CC[C@@](N)(c5ccnn5C)C4)nn3)c2c1)c1c(Cl)cncc1Cl [Example 417, (S)-1-(6-(5-((R)-1-(3,5-dichloropyridin-4-yl)ethoxy)-1H-indazol-3-yl)pyridazin-3-yl)-3-(1-methyl-1H-pyrazol-5-yl)pyrrolidin-3-amine]
FGFR1; [1]
  Kd: 1 to 50 nM
FGFR3; [1]
  Kd: 1 to 50 nM

## C[C@@H](Oc1ccc2[nH]nc(-c3ccc(N4CC[C@](N)(Cc5ccnn5C)C4)nn3)c2c1)c1c(Cl)cncc1Cl [Example 424, (S)-1-(6-(5-((R)-1-(3,5-dichloropyridin-4-yl)ethoxy)-1H-indazol-3-yl)pyridazin-3-yl)-3-((1-methyl-1H-pyrazol-5-yl)methyl)pyrrolidin-3-amine]
FGFR1; [1]
  Kd: 1 to 50 nM
FGFR3; [1]
  Kd: 1 to 50 nM

## C[C@@H](Oc1ccc2[nH]nc(-c3ccc(N4CC[C@@](N)(Cc5ccnn5C)C4)nn3)c2c1)c1c(Cl)cncc1Cl [Example 425, (R)-1-(6-(5-((R)-1-(3,5-dichloropyridin-4-yl)ethoxy)-1H-indazol-3-yl)pyridazin-3-yl)-3-((1-methyl-1H-pyrazol-5-yl)methyl)pyrrolidin-3-amine]
FGFR1; [1]
  Kd: 1 to 50 nM
FGFR3; [1]
  Kd: 1 to 50 nM

## C[C@@H](Oc1ccc2[nH]nc(-c3ccc(N4CC[C@](N)(Cc5ccn(C)n5)C4)nn3)c2c1)c1c(Cl)cncc1Cl [Example 426, (S)-1-(6-(5-((R)-1-(3,5-dichloropyridin-4-yl)ethoxy)-1H-indazol-3-yl)pyridazin-3-yl)-3-((1-methyl-1H-pyrazol-3-yl)methyl)pyrrolidin-3-amine]
FGFR1; [1]
  Kd: 1 to 50 nM
FGFR3; [1]
  Kd: 1 to 50 nM

## C[C@@H](Oc1ccc2[nH]nc(-c3ccc(N4CC[C@@](N)(Cc5ccn(C)n5)C4)nn3)c2c1)c1c(Cl)cncc1Cl [Example 427, (R)-1-(6-(5-((R)-1-(3,5-dichloropyridin-4-yl)ethoxy)-1H-indazol-3-yl)pyridazin-3-yl)-3-((1-methyl-1H-pyrazol-3-yl)methyl)pyrrolidin-3-amine]
FGFR1; [1]
  Kd: 1 to 50 nM
FGFR3; [1]
  Kd: 1 to 50 nM

## C[C@@H](Oc1ccc2[nH]nc(-c3cnc(N4CC[C@](N)(Cc5ccn(C)n5)C4)c(F)c3)c2c1)c1c(Cl)cncc1Cl [Example 428, (S)-1-(5-(5-((R)-1-(3,5-dichloropyridin-4-yl)ethoxy)-1H-indazol-3-yl)-3-fluoropyridin-2-yl)-3-((1-methyl-1H-pyrazol-3-yl)methyl)pyrrolidin-3-amine]
FGFR1; [1]
  Kd: 1 to 50 nM
FGFR3; [1]
  Kd: 1 to 50 nM
